Laboratory results published in ChEMBL document CHEMBL5241078, “Emerging trends of receptor-mediated tumor targeting peptides: A review with perspective from molecular imaging modalities” (Eur J Med Chem, 2021).

Target: T1, Gastrin/cholecystokinin type B receptor (Homo sapiens, UniProt P32239)
T1 sequence (P32239 whole entry): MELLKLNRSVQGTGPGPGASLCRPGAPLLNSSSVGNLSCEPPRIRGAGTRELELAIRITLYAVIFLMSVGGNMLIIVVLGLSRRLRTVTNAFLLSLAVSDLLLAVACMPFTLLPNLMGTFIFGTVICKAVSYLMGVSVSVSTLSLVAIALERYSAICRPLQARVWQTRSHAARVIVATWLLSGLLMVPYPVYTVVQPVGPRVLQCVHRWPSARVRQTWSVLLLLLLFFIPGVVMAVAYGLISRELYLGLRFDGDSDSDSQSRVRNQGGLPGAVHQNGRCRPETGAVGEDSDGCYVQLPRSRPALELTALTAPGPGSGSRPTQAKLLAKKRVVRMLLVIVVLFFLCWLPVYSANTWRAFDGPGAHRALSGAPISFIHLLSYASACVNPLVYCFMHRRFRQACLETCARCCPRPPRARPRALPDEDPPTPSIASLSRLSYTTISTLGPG
Test: Binding affinity to human CCK2R expressed in human A-431 cells
Format: cell-based

Row | Compound | IC50 [nM]
1 | CSCCC[C@H](NC(=O)[C@H](Cc1c[nH]c2ccccc12)NC(=O)[C@H]1CCCCNC(=O)[C@H](NC(=O)c2ccc(NN)nc2)CCC(=O)N[C@@H](C)C(=O)N[C@@H](Cc2ccc(O)cc2)C(=O)N1)C(=O)N[C@@H](CC(=O)O)C(=O)N[C@@H](Cc1ccccc1)C(N)=O | 2.54
2 | CCCCC[C@H](NC(=O)[C@H](Cc1c[nH]c2ccccc12)NC(=O)[C@H]1CCCCNC(=O)[C@H](NC(=O)c2ccc(NN)nc2)CCC(=O)N[C@@H](C)C(=O)N[C@@H](Cc2ccc(O)cc2)C(=O)N1)C(=O)N[C@@H](CC(=O)O)C(=O)N[C@@H](Cc1ccccc1)C(N)=O | 3.23
